No end group written: not given here. C16 = N-terminal C16 lipid
Experiments:
Type in all cases: cell-based
[1] = system: human stromal progenitor cells; experiment: Collagen deposited by human stromal progenitor cells (Sirius Red assay); settings: for amount of collagen deposited, higher compared to PA self-assembled in medium: self-assembled in water
Protocol: (§1) The amount of collagen deposited by the cells is investigated using the Sirius Red assay (Jimenez et al., 1985). In specific, cells are fixed in 70% ice-cold ethanol and transferred to −80° C. for at least 10 min to ensure the complete fixation of the material. Subsequently, the ethanol solution is removed and each well was gently washed with distilled water. Cells are treated with Sirius-red/picric acid solution (Sigma Aldrich) and incubated overnight at 4° C. with gentle agitation. The following day, any unbound dye is removed and cells were gently rinsed with distilled water. Cells are then treated with 500 μl of 1M NaOH (Fisher Scientific) at room temperature for 10 min under agitation to disperse the solution and 100 μL aliquots of each sample were then transferred in triplicate to a 96 well plate. The total collagen is calculated by comparing the absorbance of the resulting samples at 490 nm, read using either a Multiskan Ascent™ or a Varioskan™ Lux (both from Thermo Fisher Scientific), to that of known standard concentrations of collagen. Each tested condition is performed in triplicate. • 1.5 Atomic Force Microscopy (AFM)
(§2) The effect of the different nanostructure on biocompatibility and bioactivity was investigated next. For this study, the lipopeptides were used as a media supplement, rather than coating. The bioactivity of the lipopeptides has been evaluated for three different cell types, namely human stromal progenitor cells, human adipose-derived mesenchymal stem cells (hASCs) and immortalized mouse myoblast cell line (C2C12). • 2.2.1 Effect on Human Stromal Progenitor Cells
(§3) The inventors hypothesised that the effect exerted by the same lipopeptide molecule can be different depending on the solvent in which the self-assembly is initiated. Lumican, Matrixyl and RGDS lipopeptides were investigated as supplements to culture media using stock solutions which were previously self-assembled either in water or in medium. Specifically, cells were cultured for 7 days and proliferation was assessed at day 3 and 7, whereas collagen deposition was analysed at day 7.

[2] = system: human adipose-derived mesenchymal stem cells (hASCs); experiment: hASC proliferation (Alamar Blue); settings: 50 μM; day 3 and 7; not significant
Protocol: (§4) Cell proliferation can be evaluated via Alamar Blue assays, with cell number extrapolated from standard calibration curves using known number of cells for each experiment. Cells are incubated at 37° C. with resazurin reagent at 50 μM (Sigma Aldrich), prepared in 1:10 dilution using fresh culture medium, for […], after which 100 μl of culture supernatants (in triplicate) are sampled for fluorescence emission analysis at 590 nm using either a Fluoroskan Ascent fluorescent spectrophotometer or a Varioskan™ Lux (both from Thermo Scientific). The incubation time differ depending on the experiment and on the cell type. • 1.4 Collagen Deposit Assay
The hASCs were also cultured with RGDS lipopeptide previously solubilised above its c.a.c. in water and then diluted in SFM at the final concentration of 50 μM (FIG. 4). This was to understand if the different self-assembled structures affected hASCs behaviour as found for human stromal progenitor cell.
(§5) Moreover, hASCs were also cultured with Lumican or Matrixyl lipopeptides previously solubilised above their c.a.c. in water and then diluted in SFM at the final concentration of 50 μM (FIG. 5).

[3] = system: immortalized mouse myoblast cell line (C2C12); experiment: C2C12 proliferation (Alamar Blue); settings: solubilised in medium; 25 and 50 μM; since day 3
Protocol: as §4
C2C12 were cultured up to 7 days in serum-free medium (SFM) supplemented either with Lumican or Matrixyl or RGDS lipopeptides. Each lipopeptide stock was prepared above its c.a.c. either in serum-free medium (SFM) or in water (H2O). C2C12 proliferation was evaluated using Alamar Blue assay at day 3 and 7. The amount of deposited collagen was quantified using the Sirius Red assay at day 7.

[4] = system: human stromal progenitor cells; experiment: Human stromal progenitor cell proliferation (Alamar Blue), lipopeptides as media supplement
Protocol: as §4, §2, §3

[5] = system: human adipose-derived mesenchymal stem cells (hASCs); experiment: Collagen deposited by hASCs (Sirius Red assay); settings: 7 days in culture, not significant
Protocol: as §1, §5

[6] = system: immortalized mouse myoblast cell line (C2C12); experiment: Collagen deposited by C2C12 (Sirius Red assay); settings: 25 and 50 μM; day 7
Protocol: as §1, with “Each tested condition is performed in triplicate. • 1.5 Atomic Force Microscopy (AFM)” left out
C2C12 were cultured up to 7 days in serum-free medium (SFM) supplemented either with Lumican or Matrixyl or RGDS lipopeptides. […] C2C12 proliferation was evaluated using Alamar Blue assay at day 3 and 7. The amount of deposited collagen was quantified using the Sirius Red assay at day 7.

| Substance | amount of deposited collagen compared to the control ([1]; self-assembled in SFM, day 7) | amount of deposited collagen, higher compared to lipopeptide self-assembled in water ([1]; self-assembled in SFM, day 7) | cell proliferation when solubilised in medium rather than water [2] | cell proliferation [3] | cell viability compared to the control ([4]; self-assembled in SFM, day 7, both conditions) | collagen deposited by hASCs ([5]; solubilised in SFM) | collagen deposited when solubilised in SFM rather than water [6] | collagen deposition compared to the control (SFM) ([1]; independently of the solvent (water or medium) of self-assembly, 7 days) | amount of collagen deposited, higher compared to PA self-assembled in medium ([1]; 12 μM, 7 days) | amount of collagen deposited, higher compared to PA self-assembled in medium ([1]; 25 μM, 7 days) | cell proliferation compared to non-supplemented SFM ([4]; self-assembled in medium, 12 and 25 μM) | cell proliferation compared to non-supplemented serum free medium (SFM) ([4]; self-assembled in water, supplemented at 25 μM and 12 μM, day 3 and 7) | collagen deposited by hASCs ([5]; solubilised in water) |
| --- | --- | --- | --- | --- | --- | --- | --- | --- | --- | --- | --- | --- | --- |
| C16-KTTKS [Matrixyl lipopeptide] | significantly increased the amount of deposited collagen | 55% | slightly increase cell proliferation | significantly increased | dramatically decreased cell viability | slightly increased the collagen deposited | significantly increased |  |  |  |  |  |  |
| C16-YEALRVANEVTLN [Lumican lipopeptide] |  |  | slightly increase cell proliferation | significantly increased cell proliferation |  |  | significantly increased | significantly increased collagen deposition | 15% | ≈ 75% | slightly increased cell proliferation only up to day 3 | significantly increased cell proliferation | slightly increased the collagen deposited |

Reference: US20220296774A1, “SUPRAMOLECULAR STRUCTURES” (Cellularevolution Limited, priority 2019, published 2022)
